Experimental data: patent US4690919A, “Benzoxazinorifamycin derivative, process for preparing the same and antibacterial agent containing the same” (Kanegafuchi Kagaku Kogyo Kabushiki Kaisha, priority 1985, dated 1987)
In brackets after ≈: the same amount, converted by molar mass.

Assays:
[1] = tested on: Mycobacterium smegmatis ATCC 607; assay: Antibacterial activity (MIC), standard method of Japan Society of Chemotherapy; assay type: cell-based; settings: Mycolicibacterium smegmatis, ATCC607; Mycobacterium smegmatis ATCC 607; read-out: minimum inhibitory concentration (MIC)
Excerpt: (§1) The results obtained from the typical compounds are shown in Table 2 as the minimum inhibitory concentration (MIC, μg/ml). […] In Table 2, Test compound No. corresponds to derivative No. in Table 1.

[2] = tested on: Staphylococcus aureus IFO 12732; assay: as above; assay type: cell-based; settings: IFO12732; Staphylococcus aureus IFO 12732; read-out: minimum inhibitory concentration (MIC)
Excerpt: as §1

[3] = tested on: Escherichia coli IFO 12734; assay: as above; assay type: cell-based; settings: IFO12734, read-out: minimum inhibitory concentration (MIC)
Excerpt: as §1

[4] = tested on: Micrococcus luteus IFO 12708; assay: as above; assay type: cell-based; settings: IFO12708; Micrococcus luteus IFO 12708; read-out: minimum inhibitory concentration (MIC)
Excerpt: as §1

[5] = tested on: Bacillus subtilis IFO 3134; assay: as above; assay type: cell-based; settings: IFO3134; Bacillus subtilis IFO 3134; read-out: minimum inhibitory concentration (MIC)
Excerpt: as §1

[6] = tested on: Klebsiella pneumoniae IFO 3512; assay: as above; assay type: cell-based; settings: IFO3512; Klebsiella pneumoniae IFO 3512; read-out: minimum inhibitory concentration (MIC)
Excerpt: as §1

[7] = Concentration in serum after oral administration to rats; settings: rat, 20 mg/kg

Row | SMILES | MIC [1] [µg/mL] | MIC [2] [µg/mL] | MIC [3] [µg/mL] | MIC [4] [µg/mL] | MIC [5] [µg/mL] | MIC [6] [µg/mL] | concentration at 1 h [7] [ng/mL] | concentration at 3 h [7] [ng/mL] | concentration at 5 h [7] [ng/mL]
1 | COC1C=COC2(C)Oc3c(C)c(O)c4c(=O)c(c5oc6cc(N7CCCC7)cc(O)c6nc-5c4c3C2=O)NC(=O)C(C)=CC=CC(C)C(O)C(C)C(O)C(C)C(OC(C)=O)C1C (stereo not drawn) [compound 46] | 1.25 (≈ 1.44 µM) | ≤ 0.02 | > 10 | ≤ 0.02 | ≤ 0.02 | > 10 |  |  | 
2 | COC1C=COC2(C)Oc3c(C)c(O)c4c(=O)c(c5oc6cc(N7CCCCCC7)ccc6nc-5c4c3C2=O)NC(=O)C(C)=CC=CC(C)C(O)C(C)C(O)C(C)C(OC(C)=O)C1C (stereo not drawn) [compound 20] | 1.25 (≈ 1.42 µM) | 0.08 (≈ 0.0907 µM) | 1.25 (≈ 1.42 µM) | ≤ 0.02 | 0.04 (≈ 0.0454 µM) | > 10 | 3200 | 5700 | 4900
3 | CCN(CC)c1ccc2nc3c4c5c6c(C)c(O)c4c(=O)c(c-3oc2c1)NC(=O)C(C)=CC=CC(C)C(O)C(C)C(O)C(C)C(OC(C)=O)C(C)C(OC)C=COC(C)(O6)C5=O (stereo not drawn) [compound 3] | 1.25 (≈ 1.46 µM) | ≤ 0.02 | 2.5 (≈ 2.92 µM) | ≤ 0.02 | ≤ 0.02 | 5 (≈ 5.84 µM) | 1800 | 3300 | 1300
4 | COC1C=COC2(C)Oc3c(C)c(O)c4c(=O)c(c5oc6cc(N7CCC(C)CC7)ccc6nc-5c4c3C2=O)NC(=O)C(C)=CC=CC(C)C(O)C(C)C(O)C(C)C(OC(C)=O)C1C (stereo not drawn) [compound 24] | 1.25 (≈ 1.42 µM) | ≤ 0.02 | > 10 | ≤ 0.02 | ≤ 0.02 | > 10 |  |  | 
5 | COC(CN(C)c1ccc2nc3c4c5c6c(C)c(O)c4c(=O)c(c-3oc2c1)NC(=O)C(C)=CC=CC(C)C(O)C(C)C(O)C(C)C(OC(C)=O)C(C)C(OC)C=COC(C)(O6)C5=O)OC (stereo not drawn) [compound 11] | 2.5 (≈ 2.77 µM) | ≤ 0.02 | > 10 | ≤ 0.02 | ≤ 0.02 | 5 (≈ 5.54 µM) | 2900 | 3400 | 1000
6 | COC1C=COC2(C)Oc3c(C)c(O)c4c(=O)c(c5oc6cc(N7CCCC(C)(C)C7)ccc6nc-5c4c3C2=O)NC(=O)C(C)=CC=CC(C)C(O)C(C)C(O)C(C)C(OC(C)=O)C1C (stereo not drawn) [compound 27] | 1.25 (≈ 1.4 µM) | ≤ 0.02 | > 10 | ≤ 0.02 | ≤ 0.02 | > 10 | 1800 | 6400 | 1700
7 | CCOCCN(CCOCC)c1ccc2nc3c4c5c6c(C)c(O)c4c(=O)c(c-3oc2c1)NC(=O)C(C)=CC=CC(C)C(O)C(C)C(O)C(C)C(OC(C)=O)C(C)C(OC)C=COC(C)(O6)C5=O (stereo not drawn) [compound 9] | 1.25 (≈ 1.32 µM) | ≤ 0.02 | 5 (≈ 5.3 µM) | ≤ 0.02 | ≤ 0.02 | 10 (≈ 10.6 µM) | 2100 | 5400 | 1800
8 | CCN(C)c1ccc2nc3c4c5c6c(C)c(O)c4c(=O)c(c-3oc2c1)NC(=O)C(C)=CC=CC(C)C(O)C(C)C(O)C(C)C(OC(C)=O)C(C)C(OC)C=COC(C)(O6)C5=O (stereo not drawn) [compound 2] | 1.25 (≈ 1.48 µM) | ≤ 0.02 | 1.25 (≈ 1.48 µM) | ≤ 0.02 | 0.04 (≈ 0.0475 µM) | 2.5 (≈ 2.97 µM) | 3000 | 5400 | 3000
9 | CCN(CC)C(=O)C1CCCN(c2ccc3nc4c5c6c7c(C)c(O)c5c(=O)c(c-4oc3c2)NC(=O)C(C)=CC=CC(C)C(O)C(C)C(O)C(C)C(OC(C)=O)C(C)C(OC)C=COC(C)(O7)C6=O)C1 (stereo not drawn) [compound 31] | 1.25 (≈ 1.29 µM) | ≤ 0.02 | 5 (≈ 5.17 µM) | ≤ 0.02 | ≤ 0.02 | > 10 |  |  | 
10 | COC1C=COC2(C)Oc3c(C)c(O)c4c(=O)c(c5oc6cc(N7CCSCC7)ccc6nc-5c4c3C2=O)NC(=O)C(C)=CC=CC(C)C(O)C(C)C(O)C(C)C(OC(C)=O)C1C (stereo not drawn) [compound 45] | 1.25 (≈ 1.41 µM) | ≤ 0.02 | 2.5 (≈ 2.82 µM) | ≤ 0.02 | 0.04 (≈ 0.0451 µM) | 10 (≈ 11.3 µM) |  |  | 
11 | COC1C=COC2(C)Oc3c(C)c(O)c4c(=O)c(c5oc6cc(N7CCCC(C)C7)ccc6nc-5c4c3C2=O)NC(=O)C(C)=CC=CC(C)C(O)C(C)C(O)C(C)C(OC(C)=O)C1C (stereo not drawn) [compound 23] | 1.25 (≈ 1.42 µM) | ≤ 0.02 | > 10 | ≤ 0.02 | ≤ 0.02 | > 10 | 2100 | 6100 | 5200
